These results are taken from patent US4873263A, “Rectally absorbable form of L-dopa” (priority 1988, dated 1989).

Data set [1] in a line: Rat plasma L-dopa and bioavailability after rectal microenema with carbidopa (Example 2). The arrangement: species or system rats. The following applies: in vivo. On the procedure: The experimental conditions of Example 1 were repeated, except that each formulation also contained 0.5 mg carbidopa, a decarboxylase inhibitor which is included to decrease L-dopa metabolism.

Data set [2] can be described thus: L-dopa bioavailability in Beagle dogs after rectal administration, oral carbidopa pretreatment (Example 3). Format: in vivo. The following applies: in words. The protocol: Aqueous formulations (pH 5.5, 0.1% ascorbic acid, 0.1 ml) containing […] L-dopa ethyl ester HCl (equivalent to 50 mg L-dopa) were prepared for administration to Beagle dogs. Each dog received the rectal formulation following a 3-day pretreatment with oral carbidopa (25 mg b.i.d.). Blood samples were collected for 360 minutes and plasma L-dopa levels determined by HPLC.

The conditions of data set [3]: rat, in vivo.
Description: Aqueous microenemas (250 μl) containing either 2.0 mg L-dopa or 2.66 mg L-dopa ethyl ester HCl (equivalent to 2.0 mg L-dopa) were prepared. The solutions were adjusted to pH 5.5 and contained 0.02% ascorbic acid to prevent oxidation. Blood samples were collected following rectal administration to anesthetized rats, and plasma L-dopa determined by HPLC.
For data set [4] the following is noted: dog, in vivo; cited from earlier work.

Counter-ions that a name gives are not always drawn. Like-named read-outs stand apart in the source and are kept apart here.

With `CCOC(=O)[C@@H](N)Cc1ccc(O)c(O)c1` [L-dopa ethyl ester HCl], the “Percent L-dopa Bioavailability” value is 62 ± 32.7% in data set [1] and 12 ± 2.4% in data set [3]. Further, in data set [2], the plasma drug levels result was “significant increase in plasma drug levels”. The “plasma levels of L-dopa” value in data set [3] was “significantly higher plasma levels of L-dopa”. In addition, the “absorption by the rectal route in dogs” value in data set [4] was “not significantly absorbed in dogs”.
